Measurements taken from US20220023316A1, “METHODS FOR THE TREATMENT OF DEPRESSION” (Praxis Precision Medicines, Inc., priority 2018, published 2022).

Key:
[1] = Safety and tolerability in MDD patients, Part A; format: in vivo, human; settings: 80 mg Cohort
Protocol: (§1) In Part A, participants were administered daily doses of Compound 1 (45 mg Cohort and 80 mg Cohort) at 4 PM on Day 1 and qHS on all other study days for 7 days inpatient followed by 7 days outpatient (with subsequent Cohorts receiving up to 120 mg qHS). Participants checked into the clinic on Day 1. During this period the following assessments were performed: adverse event assessments, vital signs, physical examinations, blood and urine samples for safety assessments, ECGs, C-SSRS assessments, blood samples for PK, and efficacy assessments (HAM-D, MADRS, HAM-A, CGI [CGI-S and CGI-I], PSQI, and SDQ). Baseline assessments occurred on Day 1 prior to administration of study drug. On Day 8, prior to discharge, participants were supplied with sufficient Compound 1 to complete 7 days of dosing.
Adverse events (AEs) will be monitored throughout the duration of the study.

[2] = human, in vivo
Protocol: (§2) Healthy subjects aged 18 to 55 years were treated with an oral suspension of Compound 1 to study the safety, tolerability, pharmacokinetics and pharmacodynamics of Compound 1 in healthy subjects.
(§3) The study was a randomized, double-blind, placebo-controlled multiple escalating dose study comprised of 3 cohorts that each received an oral suspension. Each cohort consisted of two groups: one group treated with Compound 1 and another treated with placebo. In each cohort, the ratio of Compound 1-treated subjects to placebo-treated subjects was 3:1.
(§4) The Compound 1-treated subjects of Cohort 1 were treated with 15.0 mg of Compound 1 once per day (QD). The Compound 1-treated subjects of Cohort 2 were treated with 30.0 mg of Compound 1 QD. The Compound 1-treated subjects of Cohort 3 were treated with 60.0 mg of Compound 1 QD.
(§5) Patients in each cohort were treated with Compound 1 for 14 consecutive days, unless dosing was halted by the Safety Review Committee (SRC). The dosing of subjects in each of the cohorts was staggered with the decision to dose escalate based on SRC review of a minimum of 14 days of observation of safety and tolerability data and review of the available plasma PK data from the preceding cohort(s).
(§6) Compound 1 was administered under fasted conditions (no food or drink, except water, for at least 10 hours prior to dosing). Immediately after administration of Compound 1, the subject was be administered 240 mL water. No additional fluid intake was allowed until 1 hour after Compound 1 administration.
(§7) Cohort 1 subjects received a single 15.0 mg dose of a Compound 1 suspension on the morning of Days 1-14. Cohort 2 subjects received a single 30.0 mg dose of a Compound 1 suspension on the morning of Days 1-14. Cohort 3 subjects received a single 60.0 mg dose of a Compound 1 suspension on the morning of Days 1-14. For all cohorts, the last treatment was administered on the morning of Day 14.
(§8) PK parameters (e.g., Cmax, Tmax, T1/2, AUC, etc.) for healthy patients in each cohort was compared to assess the suitability of Compound 1 suspension for the treatment of MDD. Data were obtained from the blood plasma samples collected from each cohort according to the schedule provided.
(§9) Plasma samples were analyzed to determine Compound 1 concentrations using a validated assay method. Pharmacokinetic variables (including but not limited to Cmax, Tmax and AUC(0-last)), were calculated using non-compartmental analysis. PK parameters for Compound 1 were derived from the plasma concentration data using non-compartmental analysis with Phoenix™ WinNonlin® v 8.0 (Pharsight Corporation, USA).
(§10) Blood (Cohorts 1-3): For each cohort, blood samples were collected on Days 1, 2, 3, 4, 5, 6 and 14 at the following time points: Day 1 at pre-dose (0 hour), 0.25, 0.5, 0.75, 1, 1.5, 2, 2.5, 3, 4, 6, 8, 12, 16 h post-dose; Day 2 at pre-dose (24 h), Day 3 at pre-dose (48 h), Day 4 at pre-dose (72 h), Day 5 at pre-dose (96 h), Day 6 at pre-dose (120 h); Day 14 at pre-dose 0.25, 0.5, 0.75, 1, 1.5, 2, 2.5, 3, 4, 6, 8, 12, 16, 24, 36, 48, and 72 hours. Trough level blood samples were collected on Days 2, 3, 4, 5, 6 and 14, prior to the morning dose administrations.
(§11) Descriptive statistics were calculated for plasma and urine PK parameter and concentration data, and summarized by study day and time point. Arithmetic means, coefficient of variation (CV), standard deviation, median, minimum, and maximum values, and number of observations were calculated for all PK parameters and trough concentration data. Except for Tmax, the geometric mean, geometric standard deviation, and geometric CV were provided for all PK parameter and concentration data.

[3] = system: severe major depressive disorder (MDD); experiment: Open-label study in patients with severe MDD, Part A efficacy (HAM-D); format: in vivo, human
Protocol: The study is an open-label, study comprised of two dosing periods, Part A and Part B, during which patients were treated with an oral suspension of Compound 1. Part A was an open-label assessment of two dose levels of Compound 1 (45 mg qHS Cohort 1 and 80 mg qHS Cohort, i.e., once daily administration at bedtime) administered for 7 days inpatient followed by 7 days outpatient. PRAX-114 was administered at 4 PM on Day 1 in order to collect post-dosing PK samples that could not be collected with qHS dosing.
as §1
Patients were administered daily doses of Compound 1 for 7 days inpatient followed by 7 days outpatient.
In the 45 mg Cohort, patients were administered once daily dose of 45 mg of Compound 1 at bedtime for 7 days inpatient followed by once daily dose of 45 mg of Compound 1 at bedtime for 7 days outpatient.
In the 80 mg Cohort, patients were administered once daily dose of 80 mg of Compound 1 at bedtime for 7 days inpatient followed by once daily dose of 80 mg of Compound 1 at bedtime for 7 days outpatient.
Part A: In Part A, HAM-D, MADRS, HAM-A, CGI-S, and CGI-I values were collected in the morning of Days 1, 2, 3, 4, 5, 6, 7, 8, 15, 21 and 28. PSQI and SDQ values will be collected on Days 1, 8, 15, 21 and 28. Part B: In Part B, HAM-D, MADRS, HAM-A, CGI-S, CGI-I, PSQI and SDQ values will be collected on the days described for Part A.
HAM-D Response was defined as a reduction from baseline of >50% in total HAM-D score. HAM-D remission was defined as a total HAM-D score of <7.
Efficacy analysis: For both parts of the clinical trial, the HAM-D total score and change from baseline values will be summarized by treatment group and time point. In addition, the change from baseline in HAM-D total score will also be analyzed using paired t-tests or similar methods. The null hypothesis of this test is that the mean difference in HAM-D total score between paired observations (i.e., pre- and post-treatment) is zero. Similar analysis methods will be used for all secondary and exploratory efficacy variables.

[4] = Food Effect Cohort (Cohort 4) PK, single 30 mg dose fasted vs fed; settings: healthy subjects
Protocol: (§12) A Food Effect Cohort (Cohort 4) was conducted to assess the effect of food on the PK profile of a single dose of Compound 1 when administered to healthy subjects. The subjects of Cohort 4 were treated with 30 mg of Compound 1 QD.
(§13) Cohort 4 subjects received a single 30 mg dose of a Compound 1 suspension on Days 1 and 5. The Day 1 dose was administered after a minimum of 10 hour fasting. No additional fluid intake was allowed until 1 hour after drug administration. A standard meal was given at least 4 hours post-dose. The Day 5 dose was administered following a high-fat, high calorie meal. Participants remained at the clinical site for a total of 8 days to complete PK sampling after the second dose.
as §9
(§14) Urine (Cohort 4): No urine analysis was conducted in Cohort 4.

[5] = Safety and tolerability in healthy subjects (Cohorts 1-3); format: in vivo, human
Protocol: Blood and urine were obtained during each treatment period at designated times for PK and other analyses (see below). Standard safety assessments were measured during each treatment period.

[6] = human, in vivo, 30 mg
Protocol: as §12, §13, §9, §14

[7] = Multiple escalating dose PK study of oral suspension in healthy subjects (Cohorts 1-3); settings: for t1/2: Day 14 steady state
Protocol: as §2, §3, §4, §5, §6, §7, §8, §9, §10, §11

[8] = Cohorts 1-3, 15-60 mg QD for 14 days

In the case of `COC[C@@]1(O)CC[C@@]2(C)[C@@H](CC[C@@H]3[C@@H]2CC[C@]2(C)[C@@H](C(=O)Cn4ccnc4)CC[C@@H]32)C1` [Compound 1, 3α-Hydroxy-3β-methoxymethyl-21-(1′-imidazolyl)-5α-pregnan-20-one], the “Adverse Event profile compared to the 45 mg Cohort” value [1] is reported as “no change in Adverse Event profile”, the “tolerability of the dose” value [1] is reported as “well tolerated” and the “increase in Cavg, AUCss and AUCinf with dose” value [2] is reported as “proportional increase”. The “increase in Cmax and AUC parameters at steady state with dose” value [2] was “approximate proportional increase”, the “patients meeting HAM-D Response or Remission criterion” value ([3]; 45 mg Cohort (45 mg qHS), Day 7, 13 patients) was 11 of the 13 and the “patients meeting HAM-D Response or Remission criteria” value ([3]; 45 mg Cohort (45 mg qHS), Day 15, 13 patients) was 8 of the 13. The “least squares Mean Change from Baseline in HAM-D score” value ([3]; 80 mg Cohort (80 mg qHS), Day 7) was −20.0, the “least squares Mean Change from Baseline in HAM-D score” value ([3]; 80 mg Cohort (80 mg qHS), Day 15) was −16.0 and the “patients meeting HAM-D Response or Remission criteria” value ([3]; 80 mg Cohort (80 mg qHS), Day 15, 7 patients) was 6 of the 7. The “Efficacy (reduction Mean Change from Baseline in HAM-D score)” value ([3]; as monotherapy and in combination with another antidepressant) was “observed”, the “symptoms of MDD” value ([3]; daily dose of 45 mg or 80 mg, oral suspension, MDD patients) was “reduced symptoms of moderate to severe MDD” and the “Efficacy (reduction Mean Change from Baseline in HAM-D score)” value ([3]; patients undergoing first course of antidepressant treatment and patients that failed previous courses) was “observed”. The t1/2 ([4]; Fed (Day 1) n =10 as head prints, single 30 mg oral suspension after high-fat, high calorie meal, Mean (SD)) was 11.26 (0.8641) h, the “t1/2 fasted versus fed” value ([4]; single 30 mg dose) was “similar” and the “Serious Adverse Events” value [5, 8] was “no Serious Adverse Events”. The “clinically relevant vital sign, ECG, or lab abnormalities” value [5, 8] was “no clinically relevant vital sign, ECG, or lab abnormalities”, the elevated mood ([5]; doses of 30 mg and 60 mg QD) was “several subjects experienced elevated mood” and the “Cmax higher under fasting conditions compared to fed” value [6] was 1.5-1.6 times. For the same molecule, the “Tmax under fasting compared to fed conditions” value [6] was “tendency for a shorter Tmax”, the AUCinf ([6]; po) was 602.3 (304.84) h · ng/mL and the t1/2 ([7]; Cohort 1, 15.0 mg QD oral suspension, Geo Mean) was 14.613 h. It also gave a t1/2 ([7]; Cohort 1, 15.0 mg QD oral suspension, Mean) of 14.77 ± 2.26 h, a t1/2 ([7]; Cohort 1, 15.0 mg QD oral suspension, Median) of 15.26 h and a t1/2 ([7]; Cohort 2, 30.0 mg QD oral suspension, Geo Mean) of 12.647 h. The t1/2 ([7]; Cohort 2, 30.0 mg QD oral suspension, Mean) was 12.70 ± 1.23 h, the t1/2 ([7]; Cohort 2, 30.0 mg QD oral suspension, Median) was 12.90 h and the Cmax ([7]; Cohort 2, 30.0 mg QD oral suspension, fasted, Day 1, Geometric Mean) was 120.018 ng/mL. The “accumulation factor of the dosing interval (ratio of AUCDay14/AUCDay1)” value ([7]; Cohort 3, 60.0 mg QD) was 0.89, the t1/2 ([7]; Cohort 3, 60.0 mg QD oral suspension, Geo Mean) was 12.164 h and the t1/2 ([7]; Cohort 3, 60.0 mg QD oral suspension, Mean) was 12.23 ± 1.32 h. The t1/2 ([7]; Cohort 3, 60.0 mg QD oral suspension, Median) was 12.42 h.
